{"source": "PubChem BioAssay AID256", "about": "(DTP/NCI, 2004)", "test_system": "CD2F1 mice, L1210 leukemia ip, survival T/C", "test": "NCI In Vivo Anticancer Drug Screen. Data for tumor model L1210 Leukemia (intraperitoneal) in CD2F1 (CDF1) mice", "details": "endpoint: median survival time, higher = longer survival", "outline": "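Antitumor effect is scored in animals hosting a serially transplanted tumor. Values compare compound-dosed animals against vehicle-only controls as a simple quotient.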", "note": "Where “and” joins values, the source holds several entries; their conditions need not be identical. Equal values may be shown once. Inconclusive results and toxic doses are left out.", "data": [{"smiles": "COc1cc([C@@H]2c3cc4c(cc3[C@@H](OC3OC5COC(C)OC5C(O)C3O)[C@H]3COC(=O)[C@H]23)OCO4)cc(OC)c1O", "note": "(stereo partly drawn)", "values": [{"measurement": "T/C", "setting": "dose: 16.0 mg/kg/injection, schedule: Q04DX003 (ip), vehicle: other", "result": "212 % of control"}, {"measurement": "T/C", "setting": "dose: 16.0 mg/kg/injection, schedule: Q08DX002 (ip), vehicle: other", "result": "200 % of control"}, {"measurement": "T/C", "setting": "dose: 32.0 mg/kg/injection, schedule: Q01DX001 (ip), vehicle: other", "result": "162 % of control"}, {"measurement": "T/C", "setting": "dose: 32.0 mg/kg/injection, schedule: Q01DX001 (oral), vehicle: Klucel (hydroxypropylcellulose) (HPC)", "result": "105 % of control"}, {"measurement": "T/C", "setting": "dose: 32.0 mg/kg/injection, schedule: Q01DX001 (sc), vehicle: other", "result": "150 % of control"}, {"measurement": "T/C", "setting": "dose: 32.0 mg/kg/injection, schedule: Q01DX009 (ip), vehicle: other", "result": "87 % of control"}, {"measurement": "T/C", "setting": "dose: 32.0 mg/kg/injection, schedule: Q01DX009 (ip), vehicle: saline", "result": "110 % of control"}, {"measurement": "T/C", "setting": "dose: 32.0 mg/kg/injection, schedule: Q01DX009 (oral), vehicle: Klucel (hydroxypropylcellulose) (HPC)", "result": "122 % of control"}, {"measurement": "T/C", "setting": "dose: 32.0 mg/kg/injection, schedule: Q01DX009 (sc), vehicle: other", "result": "87 % of control"}, {"measurement": "T/C", "setting": "dose: 32.0 mg/kg/injection, schedule: Q03HX008 (oral), vehicle: Klucel (hydroxypropylcellulose) (HPC)", "result": "122 % of control"}, {"measurement": "T/C", "setting": "dose: 32.0 mg/kg/injection, schedule: Q03HX016 (oral), vehicle: Klucel (hydroxypropylcellulose) (HPC)", "result": "116 % of control"}, {"measurement": "T/C", "setting": "dose: 32.0 mg/kg/injection, schedule: Q04DX003 (ip), vehicle: other", "result": "206 % of control"}, {"measurement": "T/C", "setting": "dose: 32.0 mg/kg/injection, schedule: Q04DX003 (oral), vehicle: Klucel (hydroxypropylcellulose) (HPC)", "result": "105 % of control"}, {"measurement": "T/C", "setting": "dose: 32.0 mg/kg/injection, schedule: Q08DX002 (ip), vehicle: other", "result": "200 % of control"}, {"measurement": "T/C", "setting": "dose: 32.0 mg/kg/injection, schedule: Q08DX002 (oral), vehicle: Klucel (hydroxypropylcellulose) (HPC)", "result": "111 % of control"}, {"measurement": "T/C", "setting": "dose: 64.0 mg/kg/injection, schedule: Q01DX001 (ip), vehicle: other", "result": "218 % of control"}, {"measurement": "T/C", "setting": "dose: 64.0 mg/kg/injection, schedule: Q01DX001 (oral), vehicle: Klucel (hydroxypropylcellulose) (HPC)", "result": "111 % of control"}, {"measurement": "T/C", "setting": "dose: 64.0 mg/kg/injection, schedule: Q01DX001 (sc), vehicle: other", "result": "187 % of control"}, {"measurement": "T/C", "setting": "dose: 64.0 mg/kg/injection, schedule: Q01DX009 (ip), vehicle: saline", "result": "102 % of control"}, {"measurement": "T/C", "setting": "dose: 64.0 mg/kg/injection, schedule: Q01DX009 (oral), vehicle: other", "result": "162 % of control"}, {"measurement": "T/C", "setting": "dose: 64.0 mg/kg/injection, schedule: Q03HX008 (oral), vehicle: Klucel (hydroxypropylcellulose) (HPC)", "result": "116 % of control"}, {"measurement": "T/C", "setting": "dose: 64.0 mg/kg/injection, schedule: Q03HX024 (oral), vehicle: Klucel (hydroxypropylcellulose) (HPC)", "result": "94 % of control"}, {"measurement": "T/C", "setting": "dose: 64.0 mg/kg/injection, schedule: Q04DX003 (ip), vehicle: other", "result": "156 % of control"}, {"measurement": "T/C", "setting": "dose: 64.0 mg/kg/injection, schedule: Q04DX003 (oral), vehicle: Klucel (hydroxypropylcellulose) (HPC)", "result": "122 % of control"}, {"measurement": "T/C", "setting": "dose: 64.0 mg/kg/injection, schedule: Q08DX002 (ip), vehicle: other", "result": "212 % of control"}, {"measurement": "T/C", "setting": "dose: 64.0 mg/kg/injection, schedule: Q08DX002 (oral), vehicle: Klucel (hydroxypropylcellulose) (HPC)", "result": "111 % of control"}, {"measurement": "T/C", "setting": "dose: 128.0 mg/kg/injection, schedule: Q01DX001 (ip), vehicle: other", "result": "112 % of control"}, {"measurement": "T/C", "setting": "dose: 128.0 mg/kg/injection, schedule: Q01DX001 (oral), vehicle: Klucel (hydroxypropylcellulose) (HPC)", "result": "111 % of control"}, {"measurement": "T/C", "setting": "dose: 128.0 mg/kg/injection, schedule: Q01DX001 (sc), vehicle: other", "result": "87 % of control"}, {"measurement": "T/C", "setting": "dose: 128.0 mg/kg/injection, schedule: Q03HX008 (oral), vehicle: Klucel (hydroxypropylcellulose) (HPC)", "result": "122 % of control"}, {"measurement": "T/C", "setting": "dose: 128.0 mg/kg/injection, schedule: Q03HX016 (oral), vehicle: Klucel (hydroxypropylcellulose) (HPC)", "result": "150 % of control"}, {"measurement": "T/C", "setting": "dose: 128.0 mg/kg/injection, schedule: Q04DX003 (ip), vehicle: other", "result": "118 % of control"}, {"measurement": "T/C", "setting": "dose: 128.0 mg/kg/injection, schedule: Q04DX003 (oral), vehicle: Klucel (hydroxypropylcellulose) (HPC)", "result": "116 % of control"}, {"measurement": "T/C", "setting": "dose: 128.0 mg/kg/injection, schedule: Q08DX002 (ip), vehicle: other", "result": "175 % of control"}, {"measurement": "T/C", "setting": "dose: 128.0 mg/kg/injection, schedule: Q08DX002 (oral), vehicle: Klucel (hydroxypropylcellulose) (HPC)", "result": "111 % of control"}, {"measurement": "T/C", "setting": "dose: 256.0 mg/kg/injection, schedule: Q01DX001 (oral), vehicle: Klucel (hydroxypropylcellulose) (HPC)", "result": "122 % of control"}, {"measurement": "T/C", "setting": "dose: 256.0 mg/kg/injection, schedule: Q01DX001 (oral), vehicle: other", "result": "118 % of control and 112 % of control"}, {"measurement": "T/C", "setting": "dose: 256.0 mg/kg/injection, schedule: Q01DX001 (sc), vehicle: other", "result": "87 % of control"}, {"measurement": "T/C", "setting": "dose: 256.0 mg/kg/injection, schedule: Q04DX003 (oral), vehicle: Klucel (hydroxypropylcellulose) (HPC)", "result": "122 % of control"}, {"measurement": "T/C", "setting": "dose: 256.0 mg/kg/injection, schedule: Q08DX002 (oral), vehicle: Klucel (hydroxypropylcellulose) (HPC)", "result": "111 % of control"}, {"measurement": "T/C", "setting": "dose: 512.0 mg/kg/injection, schedule: Q01DX001 (oral), vehicle: Klucel (hydroxypropylcellulose) (HPC)", "result": "122 % of control"}, {"measurement": "T/C", "setting": "dose: 512.0 mg/kg/injection, schedule: Q01DX001 (oral), vehicle: other", "result": "150 % of control"}, {"measurement": "T/C", "setting": "dose: 512.0 mg/kg/injection, schedule: Q01DX009 (oral), vehicle: other", "result": "100 % of control and 112 % of control"}, {"measurement": "T/C", "setting": "dose: 512.0 mg/kg/injection, schedule: Q08DX002 (oral), vehicle: Klucel (hydroxypropylcellulose) (HPC)", "result": "105 % of control"}, {"measurement": "T/C", "setting": "dose: 1024.0 mg/kg/injection, schedule: Q01DX001 (oral), vehicle: Klucel (hydroxypropylcellulose) (HPC)", "result": "122 % of control"}, {"measurement": "T/C", "setting": "dose: 1024.0 mg/kg/injection, schedule: Q01DX001 (oral), vehicle: other", "result": "150 % of control"}, {"measurement": "T/C", "setting": "dose: 1024.0 mg/kg/injection, schedule: Q01DX009 (oral), vehicle: other", "result": "87 % of control and 100 % of control"}, {"measurement": "T/C", "setting": "dose: 1024.0 mg/kg/injection, schedule: Q08DX002 (oral), vehicle: Klucel (hydroxypropylcellulose) (HPC)", "result": "111 % of control"}]}]}
